Results reported in patent publication US11053246B2, “Substituted tricyclic compounds as FGFR inhibitors” (Incyte Corporation, priority 2012, dated 2021).

Assays:
Assay type in all cases: biochemical
FGFR2 = FGFR2 (Homo sapiens (Human), UniProt P21802); experiment: FGFR Enzymatic Assay (FRET peptide phosphorylation), FGFR2; details: FGFR2 enzyme 0.01 nM, ATP 100 μM, 25° C., 1 hr
Description: (§1) The inhibitor potency of the exemplified compounds was measured in an enzyme assay that measures peptide phosphorylation using FRET measurements to detect product formation. Inhibitors were serially diluted in DMSO and a volume of 0.5 μL was transferred to the wells of a 384-well plate. For FGFR3, a 10 μL volume of FGFR3 enzyme (Millipore) diluted in assay buffer (50 mM HEPES, 10 mM MgCl2, 1 mM EGTA, 0.01% Tween-20, 5 mM DTT, pH 7.5) was added to the plate and pre-incubated for 5-10 minutes. Appropriate controls (enzyme blank and enzyme with no inhibitor) were included on the plate. […] The plate was incubated at 25° C. for 1 hr. […] The plate was allowed to equilibrate for ˜1 hr before scanning the wells on a PheraStar plate reader (BMG Labtech).
The enzymes were purchased from Millipore or Invitrogen.
(§2) GraphPad prism3 was used to analyze the data. The IC50 values were derived by fitting the data to the equation for a sigmoidal dose-response with a variable slope. Y=Bottom+(Top−Bottom)/(1+10^((Log IC50−X)*HillSlope)) where X is the logarithm of concentration and Y is the response.

FGFR3 = FGFR3 (Homo sapiens (Human), UniProt P22607); experiment: FGFR Enzymatic Assay (FRET peptide phosphorylation), FGFR3; details: FGFR3 enzyme (Millipore), ATP 140 μM, 25° C., 1 hr
Description: as §1, §2

FGFR1 = FGFR1 (Homo sapiens (Human), UniProt P11362); experiment: FGFR Enzymatic Assay (FRET peptide phosphorylation), FGFR1; details: FGFR1 enzyme 0.02 nM, ATP 210 μM, 25° C., 1 hr
FGFR1, sequence (P11362 22-822): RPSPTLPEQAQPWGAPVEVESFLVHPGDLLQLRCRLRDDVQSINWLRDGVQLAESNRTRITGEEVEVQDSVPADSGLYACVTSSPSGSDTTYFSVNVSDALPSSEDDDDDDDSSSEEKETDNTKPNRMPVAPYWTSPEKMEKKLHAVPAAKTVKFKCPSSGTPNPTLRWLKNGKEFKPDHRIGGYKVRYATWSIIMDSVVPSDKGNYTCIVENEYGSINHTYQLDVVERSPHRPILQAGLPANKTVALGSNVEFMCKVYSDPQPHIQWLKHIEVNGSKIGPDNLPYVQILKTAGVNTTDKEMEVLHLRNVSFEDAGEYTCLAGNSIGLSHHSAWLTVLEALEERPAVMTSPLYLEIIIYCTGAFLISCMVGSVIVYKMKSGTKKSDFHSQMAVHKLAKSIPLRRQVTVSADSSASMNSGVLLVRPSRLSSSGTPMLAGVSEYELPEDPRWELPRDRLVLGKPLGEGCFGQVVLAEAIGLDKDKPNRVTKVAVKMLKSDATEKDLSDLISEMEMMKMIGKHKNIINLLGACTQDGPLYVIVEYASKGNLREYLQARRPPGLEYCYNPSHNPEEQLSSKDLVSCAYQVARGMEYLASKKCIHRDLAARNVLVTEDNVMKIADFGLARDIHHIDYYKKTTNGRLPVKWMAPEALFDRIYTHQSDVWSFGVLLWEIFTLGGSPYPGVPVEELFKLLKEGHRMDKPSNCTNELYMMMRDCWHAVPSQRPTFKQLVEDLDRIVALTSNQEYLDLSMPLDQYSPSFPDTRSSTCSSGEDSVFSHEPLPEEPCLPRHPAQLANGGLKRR

FGFR2, sequence (P21802 22-821): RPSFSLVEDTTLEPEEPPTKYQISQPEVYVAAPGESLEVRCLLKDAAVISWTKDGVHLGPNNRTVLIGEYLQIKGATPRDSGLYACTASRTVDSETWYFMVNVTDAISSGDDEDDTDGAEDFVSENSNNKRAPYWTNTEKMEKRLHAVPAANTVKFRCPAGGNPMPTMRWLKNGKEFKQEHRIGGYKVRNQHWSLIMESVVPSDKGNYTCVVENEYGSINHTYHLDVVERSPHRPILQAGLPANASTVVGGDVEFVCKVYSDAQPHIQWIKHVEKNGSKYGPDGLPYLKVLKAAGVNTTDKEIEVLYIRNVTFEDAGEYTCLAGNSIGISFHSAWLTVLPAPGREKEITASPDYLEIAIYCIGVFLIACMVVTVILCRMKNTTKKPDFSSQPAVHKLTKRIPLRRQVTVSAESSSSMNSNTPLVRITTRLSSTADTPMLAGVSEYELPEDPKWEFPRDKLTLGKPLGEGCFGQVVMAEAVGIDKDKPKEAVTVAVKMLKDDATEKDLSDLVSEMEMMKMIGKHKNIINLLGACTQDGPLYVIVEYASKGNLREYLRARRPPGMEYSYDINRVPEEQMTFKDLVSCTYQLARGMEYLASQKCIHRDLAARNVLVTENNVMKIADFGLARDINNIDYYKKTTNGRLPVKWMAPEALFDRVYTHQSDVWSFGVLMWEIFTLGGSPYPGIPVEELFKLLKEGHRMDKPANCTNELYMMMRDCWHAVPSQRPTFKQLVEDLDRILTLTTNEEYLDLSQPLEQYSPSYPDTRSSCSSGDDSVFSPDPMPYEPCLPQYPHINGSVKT
FGFR3, sequence (P22607 23-806): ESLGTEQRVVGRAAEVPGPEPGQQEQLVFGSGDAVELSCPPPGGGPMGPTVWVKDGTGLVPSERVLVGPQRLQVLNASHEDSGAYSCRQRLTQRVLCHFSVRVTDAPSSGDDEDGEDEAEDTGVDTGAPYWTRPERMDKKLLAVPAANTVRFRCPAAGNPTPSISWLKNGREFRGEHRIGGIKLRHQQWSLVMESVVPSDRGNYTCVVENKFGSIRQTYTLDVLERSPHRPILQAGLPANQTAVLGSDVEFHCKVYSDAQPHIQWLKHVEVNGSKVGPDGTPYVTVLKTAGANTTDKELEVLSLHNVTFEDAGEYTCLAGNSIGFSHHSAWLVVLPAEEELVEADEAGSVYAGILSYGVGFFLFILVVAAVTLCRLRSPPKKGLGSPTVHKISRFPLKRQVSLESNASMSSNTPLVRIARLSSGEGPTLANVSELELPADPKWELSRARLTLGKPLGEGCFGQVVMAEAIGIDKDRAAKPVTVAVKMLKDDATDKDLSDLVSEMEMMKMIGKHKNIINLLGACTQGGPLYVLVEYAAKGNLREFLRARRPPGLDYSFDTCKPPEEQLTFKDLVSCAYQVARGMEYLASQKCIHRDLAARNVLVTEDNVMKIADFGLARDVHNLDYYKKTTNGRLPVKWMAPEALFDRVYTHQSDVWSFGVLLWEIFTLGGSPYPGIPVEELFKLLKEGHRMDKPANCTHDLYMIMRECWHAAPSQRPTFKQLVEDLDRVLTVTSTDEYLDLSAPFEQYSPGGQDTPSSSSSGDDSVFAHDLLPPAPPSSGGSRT

IC50 (FGFR2): < 100 nM
IC50 (FGFR3): < 100 nM
IC50 (FGFR1): < 100 nM
SMILES: CCN1C(=O)N(c2c(F)c(OC)cc(OC)c2Cl)Cc2cnc3c(c21)CC(=O)N3 [Example 63, 3-(2-chloro-6-fluoro-3,5-dimethoxyphenyl)-1-ethyl-3,4,7,9-tetrahydro-1H-pyrrolo[3′,2′:5,6]pyrido[4,3-d]pyrimidine-2,8-dione]
